Experimental data as given in publication PMC11541501, “Development of a Candidate ^11C‑Labeled Selective Phosphodiesterase 1 Radioligand for Positron Emission Tomography” (ACS Omega, 2024).
Like-named read-outs stand apart in the source and are kept apart here. Blank lines part the entries; values can stand above or below the molecule they belong to.

What was measured:
[1] = system: PDE1; conditions: cited from earlier work; for IC50: introduction, literature value
[2] = system: 65 major CNS targets, including ion channels, transporters, and GPCR enzymes; assay: Off-target binding screen against 65 major CNS targets (NIMH PDSP); conditions: 10 μM testing concentration; except 5-HT2B and 5-HT6
Description: (§1) Furthermore, we investigated the off-target binding of PF-04822163 in vitro against 65 major CNS targets, including ion channels, transporters, and GPCR enzymes (Figure S2 in the Supporting Information, supported by the NIMH Psychoactive Drug Screening Program (PDSP)).
(§2) % Inhibition of Target Activity
(§3) Figure S2. Off-target pharmacological evaluation of compound PF-04822163 against major CNS targets, including common GPCRs, enzymes, ion channels, and transporters: initial screening at a concentration of 10 μM (supported by the NIMH PDSP). All data are […]
(§4) Figure S3. The time-activity-curves (0-60 min) of PET studies with [11C]PF-04822163 in rat brains under baseline and blocking conditions. All data were referred to as mean ± SEM,

[3] = molecular target: T1, PDE1B (Homo sapiens, UniProt Q01064); conditions: introduction, literature value; ref Humphrey et al., 2014; cited from earlier work
[4] = molecular target: PDE1A (Homo sapiens, UniProt P54750); assay: PDE1A inhibition; format: biochemical
[5] = molecular target: PDE10A (Homo sapiens, UniProt Q9Y233); assay: Potency toward other PDEs (PDE10A); format: biochemical
[6] = molecular target: T2, 5-HT2B (Homo sapiens, UniProt P41595); assay: Off-target binding, 5-HT2B (NIMH PDSP)
T2 construct: NIMH Psychoactive Drug Screening Program (PDSP)
Description: as §1, §2, §3, §4

[7] = Log D by shake flask method (n-octanol/PBS); format: physicochemical; conditions: measured with [11C]PF-04822163
Method: as §1
The measurement of log D was performed as previously reported. In brief, [^11C]-PF-04822163, n-octanol (3 mL), and PBS (1×, 3 mL) were added to a centrifuge tube, and vortexing was conducted for 3 min followed by centrifugation (∼14,000 rpm) for 5 min. PBS (around 500 μL) and n-octanol (around 50 μL) were then weighted and measured by a gamma counter.

[8] = system: PDE1; assay: Dynamic PET imaging in rat brains; format: in vivo, SD rats
Method: Encouraged by the results of in vitro evaluation by autoradiography studies with the ligand [^11C]-PF-04822163, dynamic PET imaging studies were conducted with [^11C]-PF-04822163 on SD rats. […] Additionally, an evident washout was observed after initial high uptakes in all brain regions. To assess the in vivo binding specificity of [^11C]-PF-04822163 to PDE1, we carried out blocking studies with the pretreatment of unlabeled PF-04822163 (1 mg/kg, 10 min before the administration of [^11C]-PF-04822163). […] These findings indicate that further optimization of the pharmacological and ADME properties is warranted to obtain a suitable probe for in vivo imaging of PDE1.
4 PET studies of [^11C]-PF-04822163 in rat brains. […]
PET imaging was conducted as previously reported. , An Inveon PET scanner (Siemens) was used for dynamic PET imaging studies, [^11C]-PF-04822163 (ca. 17.5 MBq/1.5 mL) was intravenously injected via the tail vein via a preinstalled catheter, and dynamic PET images were acquired in a 3D mode for a period of 60 min. […] The dynamic PET images were reconstructed using ASIPro VW software, and volumes of interest were calculated.

[9] = molecular target: T3, 5-HT6 (Homo sapiens, UniProt P50406); assay: Off-target binding, 5-HT6 (NIMH PDSP)
T3 construct: NIMH Psychoactive Drug Screening Program (PDSP)
Description: as §1, §2, §3, §4

[10] = molecular target: PDE1C (Homo sapiens, UniProt Q14123); assay: PDE1C inhibition; format: biochemical
[11] = system: PDE1B; assay: In vitro autoradiography with [11C]PF-04822163 on rat brain sections, blocking; format: binding, Sprague–Dawley (SD) rat; conditions: blocker 10 μM, [11C]PF-04822163 autoradiography
Method: With the ligand [^11C]-PF-04822163 in hand, in vitro autoradiography studies were conducted on Sprague–Dawley (SD) rat brain sections to validate its binding specificity toward PDE1. […] In the autoradiography studies on the coronal brain sections, high radioactivity levels were found in the caudate putamen, nucleus accumbens, and olfactory tubercle (Figure a,c).
3 In vitro autoradiography studies of [^11C]-PF-04822163 on rat brain sections. (a) Representative images of autoradiography studies with [^11C]-PF-04822163 under baseline and blocking conditions (PF-04822163 or PF-04827736, 10 μM), (b) quantification of autoradiography studies of [^11C]-PF-04822163 on sagittal rat brain sections, and (c) quantification of autoradiography studies of [^11C]-PF-04822163 on coronal rat brain sections. All data are means ± SD, n ≥ 8. Statistical analysis was conducted with Student’s two-tailed t tests, and asterisks indicated the statistical significance as follows: *p < 0.05, **p ≤ 0.01, and ***p ≤ 0.001.
Autoradiography studies were performed according to previous reports. , In brief, the rat brain sections (20 μm) were preincubated with a Tris–HCl buffer (50 mM) at room temperature for 20 min followed by incubation with [^11C]-PF-04822163 (168 Bq/mL). […] The radioactivity values were normalized as a percentage of the radioactivity relative to the control.

[12] = molecular target: T1, PDE1B; assay: PDE1B inhibition; format: biochemical
[13] = Whole-body biodistribution study in mice; format: in vivo, ddY mice
Method: To investigate the distribution of [^11C]-PF-04822163 in the whole body, we conducted a biodistribution study in ddY mice (Figure ). The radioactivity levels in major organs were assessed at 1, 5, 15, 30, and 60 min after the administration of [^11C]-PF-04822163. […] After the initial uptake, radioactivity accumulations decreased in almost all organs, while the uptake in the small intestine increased, and liver uptake remained at a high level (5% ID/g at 60 min), indicating a hepatobiliary elimination route.
The biodistribution experiment was performed according to previous reports. , In brief, [^11C]-PF-04822163 (4.44 MBq/0.1 mL) was injected (i.v.) into ddY mice via the tail vein. After the administration of [^11C]-PF-04822163, the mice were sacrificed at different time points (1, 5, 15, 30, and 60 min), and tissues of interest were collected. The tissues were weighted and measured by a gamma counter.

[14] = Radiometabolic analysis in rat brain and plasma; format: in vivo, SD rats; conditions: 15 min postadministration
Method: To gain insight into the in vivo stability of [^11C]-PF-04822163, we performed radiometabolic analysis in the brain and plasma of SD rats (Figure ). At 15 min postadministration of [^11C]-PF-04822163, 95% of [^11C]-PF-04822163 remained unchanged in the brain, while in plasma, 26% remained unchanged.
The radiometabolic analysis was performed following a previous report. After the intravenous injection of [^11C]-PF-04822163, SD rats were sacrificed at 15 min postinjection. Plasma samples were quenched with acetonitrile and centrifuged, and the supernatant was assessed by radio-HPLC. The brain was collected and homogenized and quenched with acetonitrile, and the resulting homogenate was centrifuged. The supernatant was analyzed by radio-HPLC.

T1 sequence (Q01064 whole entry, species assumed): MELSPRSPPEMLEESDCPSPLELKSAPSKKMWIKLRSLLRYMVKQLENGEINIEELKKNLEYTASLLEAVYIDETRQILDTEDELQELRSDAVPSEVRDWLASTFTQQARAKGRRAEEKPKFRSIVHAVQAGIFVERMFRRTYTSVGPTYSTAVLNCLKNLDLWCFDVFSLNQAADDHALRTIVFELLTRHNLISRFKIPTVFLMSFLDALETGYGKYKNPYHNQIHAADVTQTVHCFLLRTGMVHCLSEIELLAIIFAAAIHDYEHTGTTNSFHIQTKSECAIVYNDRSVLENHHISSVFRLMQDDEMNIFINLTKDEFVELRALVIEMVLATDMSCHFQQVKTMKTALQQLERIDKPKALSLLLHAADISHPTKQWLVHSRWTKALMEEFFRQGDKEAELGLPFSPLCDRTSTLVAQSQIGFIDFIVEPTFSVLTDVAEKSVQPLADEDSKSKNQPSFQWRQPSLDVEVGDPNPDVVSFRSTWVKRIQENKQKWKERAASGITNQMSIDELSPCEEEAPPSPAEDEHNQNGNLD
PDE1C, sequence (Q14123 whole entry, species assumed): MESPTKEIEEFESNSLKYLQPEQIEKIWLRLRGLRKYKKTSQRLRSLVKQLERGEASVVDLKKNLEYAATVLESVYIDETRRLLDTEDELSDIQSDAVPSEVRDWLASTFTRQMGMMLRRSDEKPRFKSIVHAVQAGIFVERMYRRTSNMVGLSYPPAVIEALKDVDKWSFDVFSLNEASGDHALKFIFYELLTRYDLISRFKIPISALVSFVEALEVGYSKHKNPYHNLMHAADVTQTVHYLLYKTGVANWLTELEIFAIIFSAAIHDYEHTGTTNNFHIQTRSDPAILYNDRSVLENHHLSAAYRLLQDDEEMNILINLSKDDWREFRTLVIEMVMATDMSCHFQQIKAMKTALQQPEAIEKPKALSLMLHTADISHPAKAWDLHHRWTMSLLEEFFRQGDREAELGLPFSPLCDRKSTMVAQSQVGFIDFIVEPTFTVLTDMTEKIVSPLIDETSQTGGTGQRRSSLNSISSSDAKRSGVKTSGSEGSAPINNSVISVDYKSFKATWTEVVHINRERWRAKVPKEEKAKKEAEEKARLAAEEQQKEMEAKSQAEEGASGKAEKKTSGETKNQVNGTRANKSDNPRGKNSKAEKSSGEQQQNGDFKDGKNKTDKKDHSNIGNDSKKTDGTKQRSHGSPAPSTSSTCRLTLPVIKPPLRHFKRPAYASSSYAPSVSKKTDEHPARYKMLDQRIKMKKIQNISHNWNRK
PDE1A, sequence (P54750 whole entry, species assumed): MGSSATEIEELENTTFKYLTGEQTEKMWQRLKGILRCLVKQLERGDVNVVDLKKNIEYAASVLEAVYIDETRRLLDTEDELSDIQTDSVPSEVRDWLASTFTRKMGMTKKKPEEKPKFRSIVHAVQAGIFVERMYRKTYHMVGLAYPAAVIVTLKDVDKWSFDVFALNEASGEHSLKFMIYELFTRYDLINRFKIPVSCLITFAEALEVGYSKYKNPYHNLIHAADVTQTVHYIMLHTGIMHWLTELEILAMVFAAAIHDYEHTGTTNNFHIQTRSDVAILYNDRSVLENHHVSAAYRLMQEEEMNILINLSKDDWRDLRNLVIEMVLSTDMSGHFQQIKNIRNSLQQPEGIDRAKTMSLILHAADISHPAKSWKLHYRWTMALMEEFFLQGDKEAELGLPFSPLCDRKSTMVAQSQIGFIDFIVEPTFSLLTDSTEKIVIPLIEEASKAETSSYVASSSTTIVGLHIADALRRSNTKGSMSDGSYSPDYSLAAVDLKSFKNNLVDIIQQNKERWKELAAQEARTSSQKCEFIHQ
T3 sequence (P50406 whole entry): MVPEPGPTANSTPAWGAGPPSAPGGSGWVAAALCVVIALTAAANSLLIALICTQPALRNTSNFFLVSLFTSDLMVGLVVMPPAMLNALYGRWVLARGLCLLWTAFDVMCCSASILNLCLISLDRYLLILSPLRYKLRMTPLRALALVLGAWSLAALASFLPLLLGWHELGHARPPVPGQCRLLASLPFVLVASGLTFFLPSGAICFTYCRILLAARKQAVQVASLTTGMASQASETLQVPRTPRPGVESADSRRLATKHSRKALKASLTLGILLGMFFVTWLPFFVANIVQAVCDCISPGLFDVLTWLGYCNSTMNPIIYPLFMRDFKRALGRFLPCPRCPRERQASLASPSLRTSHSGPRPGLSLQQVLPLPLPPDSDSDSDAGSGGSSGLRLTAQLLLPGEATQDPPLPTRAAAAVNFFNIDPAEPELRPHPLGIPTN
T2 sequence (P41595 whole entry): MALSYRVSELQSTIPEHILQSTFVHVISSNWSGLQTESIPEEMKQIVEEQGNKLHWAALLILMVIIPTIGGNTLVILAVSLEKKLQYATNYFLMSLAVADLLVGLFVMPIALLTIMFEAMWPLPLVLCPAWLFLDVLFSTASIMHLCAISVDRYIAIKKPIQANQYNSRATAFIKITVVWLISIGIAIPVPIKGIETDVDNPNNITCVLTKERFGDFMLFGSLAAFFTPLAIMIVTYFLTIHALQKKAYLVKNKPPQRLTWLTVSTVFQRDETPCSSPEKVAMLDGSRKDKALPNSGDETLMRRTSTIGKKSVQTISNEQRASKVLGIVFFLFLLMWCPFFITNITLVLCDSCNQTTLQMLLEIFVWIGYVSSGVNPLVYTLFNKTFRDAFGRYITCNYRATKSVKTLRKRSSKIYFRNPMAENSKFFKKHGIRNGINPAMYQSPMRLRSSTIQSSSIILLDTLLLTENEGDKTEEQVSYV
PDE10A, sequence (Q9Y233 whole entry, species assumed): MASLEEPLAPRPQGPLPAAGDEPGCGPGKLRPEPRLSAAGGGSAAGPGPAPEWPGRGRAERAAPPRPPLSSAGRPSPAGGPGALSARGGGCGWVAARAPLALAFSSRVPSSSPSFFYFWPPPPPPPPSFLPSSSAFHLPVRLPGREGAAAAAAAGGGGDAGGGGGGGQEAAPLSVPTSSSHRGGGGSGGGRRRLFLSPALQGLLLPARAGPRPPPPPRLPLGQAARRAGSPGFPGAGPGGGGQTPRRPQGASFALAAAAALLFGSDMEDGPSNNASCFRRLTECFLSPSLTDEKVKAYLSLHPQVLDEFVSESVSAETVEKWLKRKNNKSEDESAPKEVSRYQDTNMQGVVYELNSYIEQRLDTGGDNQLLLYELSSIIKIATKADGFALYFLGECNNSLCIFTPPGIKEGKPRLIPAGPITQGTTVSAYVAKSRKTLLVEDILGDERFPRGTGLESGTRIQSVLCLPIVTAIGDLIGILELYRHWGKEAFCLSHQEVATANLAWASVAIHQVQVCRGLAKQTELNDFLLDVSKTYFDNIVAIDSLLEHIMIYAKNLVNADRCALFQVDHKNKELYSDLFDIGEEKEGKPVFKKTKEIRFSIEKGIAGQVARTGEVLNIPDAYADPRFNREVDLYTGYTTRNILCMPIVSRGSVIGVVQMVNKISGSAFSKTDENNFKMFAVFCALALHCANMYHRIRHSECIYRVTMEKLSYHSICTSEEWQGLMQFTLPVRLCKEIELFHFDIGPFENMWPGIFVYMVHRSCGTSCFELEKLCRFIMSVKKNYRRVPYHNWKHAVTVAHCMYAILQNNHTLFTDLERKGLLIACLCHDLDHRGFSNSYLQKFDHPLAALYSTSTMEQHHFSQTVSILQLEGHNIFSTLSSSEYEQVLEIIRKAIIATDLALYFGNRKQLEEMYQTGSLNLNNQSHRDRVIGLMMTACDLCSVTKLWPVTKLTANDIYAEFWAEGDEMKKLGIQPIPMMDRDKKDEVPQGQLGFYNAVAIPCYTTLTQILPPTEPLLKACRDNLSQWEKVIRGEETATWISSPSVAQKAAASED

Structure (SMILES): CN1C(=O)c2c(nn(Cc3ccc(-c4cccc(F)n4)cc3)c2Nc2ccccc2)N2C1=N[C@@H]1CCC[C@@H]12 [ITI-214]
selectivity over other PDEs ([1]; PDE1 over other PDEs, ref Li et al., 2016): > 1000 fold
IC50 ([1]; ref Li et al., 2016): 0.058 nM

off-target binding (>50% inhibition) [2]: no significant off-target binding
IC50 [4]: 2 nM
selectivity over other PDEs for PDE1A [4]: 126 fold
IC50 [5]: 252 nM
Ki [6]: 262 nM
logD [7]: 2.53
Ki [9]: 4860 nM
IC50 [10]: 7 nM
selectivity over other PDEs for PDE1C [10]: 36 fold
IC50 [12]: 2.4 nM
selectivity over other PDEs for PDE1B [12]: 105 fold
melting point: 122 to 124 °C
Structure (SMILES): COc1ccc2c([C@H]3CCc4ccc(Cl)cc43)ncnc2c1OC [PF-04822163, (S)-4-(6-Chloro-2,3-dihydro-1H-inden-1-yl)-7,8-dimethoxyquinazoline]
selectivity over other PDEs [3]: > 100 fold
reduction in uptake (AUC) in different brain regions ([8]; pretreatment with unlabeled blocker 1 mg/kg, 10 min before [11C]PF-04822163, AUC 0–20 min): 7–12%
decrease in radioactivity signal in PDE1B-rich regions [11]: 47–71%

Structure (SMILES): CCOC(=O)C1=C[C@]2(CC)CCCN3CCc4c(n1c1ccccc41)[C@@H]32 [Vinpocetine]
IC50 [1]: 30000 nM

uptake ([13]; at 1 and 5 min, heart, lung, liver, kidney, adrenal, and brain): ≥ 3 % ID/g
liver uptake ([13]; at 60 min): 5 % ID/g
SUVmax ([8]; striatum, 3 min post-tracer administration, baseline): 2.0
remained unchanged in the brain ([14]; rat brain): 95%
remained unchanged in plasma ([14]; rat plasma): 26%
Structure (SMILES): COc1c(O[11CH3])ccc2c([C@H]3CCc4ccc(Cl)cc43)ncnc12 [[^11C]PF-04822163]
